# Measured values: US20020128264A1, “Methods for treatment of conditions affected by activity of multidrug transporters” (priority 2000, published 2002)
# Where two headings read alike, the source gives them in different places.
# Assays:
# [1] = Intracerebroventricular (icv) efflux from brain; format: in vivo, mice; conditions: icv administration
# Description: (§1) Male Swiss-Webster CFW mice were supplied by Charles River Laboratories (Hollister, Calif.) and all experiments were conducted according to the NIH Guide on Care and Use of Laboratory Animals. Mice were 2-3 months old at the time of use.
# (§2) These experiments were conducted according to the method of Banks et al. (1997) with minor modifications. The skull was exposed and, with a guarded 25 g needle, a hole was made through the skull at 1 mm anterior posterior (AP) and 1 mm lateral left (LL), relative to Bregma, and 3.5 mm dorsal ventral (DV), with respect to the skull. A guarded 1 μL Hamilton syringe (25 g) was used to inject 1 μL of PBS containing ^14C-AIT-082 (˜4.5×10^4 dpm/μL), ^3H-sucrose (˜3×10^4 dpm/μL), or ^3H-quinidine (˜3×10^4 dpm/μL) icv into mice. After injection and upon withdrawing the needle, there was often back flux of fluid that was collected. At various times after injection the amount of radioactivity remaining in the brain was determined. The amount of radioactivity in the back flux and injection mixture was also determined. Radioactivity in brain was corrected for the back flux and the log of this corrected dpm was plotted against time. The t½, was the inverse of the slope of the line multiplied by 0.301 (Banks et al., 1997).
# (§3) All data are presented as mean ±S.E. For comparisons of means from 2 groups an unpaired Student's t-test was used. For comparisons of means from 3 groups, ANOVA was performed coupled with Scheffe's post-hoc analysis.
# [2] = Intraparenchymal (ipc) efflux from brain; format: in vivo, mice; conditions: ipc administration
# Description: as §1
# These experiments were conducted according the method of Banks et al. (1994) with minor modifications. Mice were anesthetized and then immobilized in a stereotaxic apparatus with a mouse adaptor coupled to a microinjection unit (Kopf, Tujunga, Calif.). A small hole was made in the skull with a Dremel drill (model 770; 2.4 mm drill bit, model 107) at −1 mm AP and 1 mm LL relative to Bregma. Using a guarded 0.5 μL Hamilton syringe (25 g), 0.1 μL PBS containing ^14C-AIT-082 ([…]) or ^3H-sucrose (˜5×10^4 dpm/μL) was injected ipc at […] with respect to the skull. Back flux of injection fluid was collected and at various times after injection brains were removed. The amount of radioactivity in brain, back flux and injection mixture was measured. The amount of radioactivity in the brain was corrected for the back flux and the log of this corrected dpm was plotted against time. The t½ was calculated as described above.
# as §3
# P-gp = target: T1, P-gp (Mus musculus, UniProt P21447); assay: Effect of AIT-082 on efflux of 3H-quinidine (P-gp substrate) from brain after icv administration; format: in vivo, mice; conditions: quinidine is a P-gp substrate
# T1 construct: from tissue; host or cells: brain of living mice (in vivo efflux after icv or ipc injection)
# Description: as §2, §3
# [3] = Taylor et al., 2000, cited from earlier work
# [4] = Taylor et al., 2000, cited from earlier work; remark: listed apart in the source
# MRPs [5] = assay: Effect of MRP inhibitors on efflux of 14C-AIT-082 from brain after icv administration; format: in vivo, mice; conditions: icv co-administration with 14C-AIT-082
# Description: To examine the role of P-gp and MRP, various substrates/inhibitors were co-administered with ^14C-AIT-082. […] In all experiments the control group of animals was given ^14C-AIT-082 in PBS. Additionally, in experiments in which probenecid or verapamil were used, a second control group was given ^14C-AIT-082 in PBS containing 370 mM NaOH and 370 mM HCl, pH 7.4, or 14C-AIT-082 in PBS with 4.2% ethanol, pH 7.4, respectively.
# All data are presented as mean ±S.E. For comparisons of means from 2 groups an unpaired Student's t-test was used. […]
# MRPs [6] = assay: Effect of MRP inhibitors on efflux of 14C-AIT-082 from brain after ipc administration; format: in vivo, mice; conditions: ipc co-administration with 14C-AIT-082
# Description: Mice were anesthetized and then immobilized in a stereotaxic apparatus with a mouse adaptor coupled to a microinjection unit (Kopf, Tujunga, Calif.). […] Back flux of injection fluid was collected and at various times after injection brains were removed. The amount of radioactivity in brain, back flux and injection mixture was measured. The amount of radioactivity in the brain was corrected for the back flux and the log of this corrected dpm was plotted against time. The t½ was calculated as described above.
# As above, all experiments included a control group in which ^14C-AIT-082 was administered in PBS.
# [7] = passively transported compound, t½ significantly higher
# T1 sequence (P21447 whole entry): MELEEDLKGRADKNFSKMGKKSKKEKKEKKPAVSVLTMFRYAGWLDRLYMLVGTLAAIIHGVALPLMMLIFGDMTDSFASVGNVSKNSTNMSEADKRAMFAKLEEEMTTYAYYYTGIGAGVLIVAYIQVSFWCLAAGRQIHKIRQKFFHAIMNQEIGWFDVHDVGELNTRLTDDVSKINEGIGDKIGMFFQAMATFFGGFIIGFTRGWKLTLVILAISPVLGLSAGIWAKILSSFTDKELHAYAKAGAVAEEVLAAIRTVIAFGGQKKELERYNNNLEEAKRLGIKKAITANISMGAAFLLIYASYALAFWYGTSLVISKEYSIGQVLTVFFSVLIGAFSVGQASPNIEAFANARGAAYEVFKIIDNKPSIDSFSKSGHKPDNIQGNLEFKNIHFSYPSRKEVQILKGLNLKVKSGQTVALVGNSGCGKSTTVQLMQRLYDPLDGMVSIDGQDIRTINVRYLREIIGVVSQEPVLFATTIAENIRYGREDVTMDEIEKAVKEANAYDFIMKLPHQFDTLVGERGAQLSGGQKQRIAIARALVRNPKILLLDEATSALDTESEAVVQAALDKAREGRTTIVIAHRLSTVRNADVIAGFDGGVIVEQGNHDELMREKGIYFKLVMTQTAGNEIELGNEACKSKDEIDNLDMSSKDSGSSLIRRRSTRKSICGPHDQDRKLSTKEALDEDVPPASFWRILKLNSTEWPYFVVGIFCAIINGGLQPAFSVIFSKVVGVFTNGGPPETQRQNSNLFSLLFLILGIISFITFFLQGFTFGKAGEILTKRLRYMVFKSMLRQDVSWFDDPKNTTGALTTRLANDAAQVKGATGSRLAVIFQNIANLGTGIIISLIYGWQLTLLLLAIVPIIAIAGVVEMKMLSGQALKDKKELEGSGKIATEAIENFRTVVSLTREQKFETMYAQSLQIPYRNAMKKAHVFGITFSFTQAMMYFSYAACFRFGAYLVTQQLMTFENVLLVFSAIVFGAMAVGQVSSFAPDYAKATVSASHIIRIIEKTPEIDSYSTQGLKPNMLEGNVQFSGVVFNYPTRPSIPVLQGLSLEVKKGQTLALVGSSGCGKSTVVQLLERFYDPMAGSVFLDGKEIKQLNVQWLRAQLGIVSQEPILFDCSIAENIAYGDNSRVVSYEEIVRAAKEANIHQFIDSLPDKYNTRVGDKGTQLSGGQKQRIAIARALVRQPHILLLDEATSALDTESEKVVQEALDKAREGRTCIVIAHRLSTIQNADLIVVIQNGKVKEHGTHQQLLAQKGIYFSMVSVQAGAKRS
compound,measurement,setting,value
"O=C(CCn1cnc2c(=O)[nH]cnc21)Nc1ccc(C(=O)O)cc1 [AIT-082, N-4-carboxyphenyl-3-(6-oxohydropurin-9-yl)propanamide]",effect of excess unlabeled AIT-082 on efflux of 14C-AIT-082 from brain (saturability),[1],inhibited
same,t½ of transport out of brain,"[1]; mice, mean ±S.E.",20 ± 1.0 min
same,effect of excess unlabeled AIT-082 on efflux of 14C-AIT-082 from brain (saturability),[2],inhibited
same,t½ of transport out of brain,"[2]; mice, mean ±S.E.",35.0 ± 1.9 min
same,effect on efflux of 3H-quinidine from brain,P-gp,inhibited
same,effect of excess unlabeled AIT-082 on efflux of 14C-AIT-082 from brain,[3],inhibited
same,t½ of transport out of brain,[3]; after intracerebroventricular administration,approximately 20 minutes
same,mechanism of transport into brain,[4],non-saturable mechanism
same,amount detectable in cortical extracellular fluid,[4]; capillary depletion and microdialysis,low micromolar quantities
"OC[C@H]1O[C@@](CO)(O[C@H]2O[C@H](CO)[C@@H](O)[C@H](O)[C@H]2O)[C@@H](O)[C@@H]1O [^3H-sucrose, sucrose, reference compound]",transport out of brain compared with 14C-AIT-082,[1]; [7],significantly slower
same,transport out of brain compared with 14C-AIT-082,[2]; [7],significantly slower
CCCN(CCC)S(=O)(=O)c1ccc(C(=O)O)cc1 [probenecid],effect on efflux of 14C-AIT-082 from brain,MRPs [5],significantly inhibited
same,effect on efflux of 14C-AIT-082 from brain,MRPs [6],significantly inhibited
